One assay deals with CDK1 (Homo sapiens, UniProt P06493). The assay can be described thus: Cyclin dependent protein kinase substrate phosphorylation assay, CDK1. It counts as biochemical. Here is the method:
Cyclin dependent protein kinase assays utilized the peptides Biotin-aminohexyl-[…] and Biotin-aminohexyl-[…]-NH2 as phosphoryl group acceptors. CDK1 and CDK2 were both expressed utilizing a baculovirus expression system and were partially purified to comprise 20-80% of total protein, with no detectable competing reactions present. Typically, assays were performed by incubating either enzyme (0.2-10 nM), with and without inhibitor, one of the two peptide substrates ([…]), [γ-^32P]ATP ([…]), and 10-20 mM Mg^2+ for periods of time generally within the range 10-120 min. Reactions were terminated with 0.2-2 volumes of either 20% acetic acid or 50-100 mM EDTA buffered to pH 7 (substrate consumption<20%). The buffer employed in enzyme assays was either 30 mM HEPES 7.4 containing 0.15 M NaCl and 5% DMSO, the buffer 50 mM MOPS 7.0 containing 0.15 M NaCl and 5% DMSO, or the buffer 100 mM HEPES pH 7.5 containing 0.1 mg /mL BSA and 5% DMSO. Inhibitors were diluted in 100% DMSO prior to addition into the assay. Detection of peptide phosphorylation was accomplished by scintillation counting following either collection of peptide onto phosphocellulose filters (for reactions stopped with acetic acid), collection of peptide in wells of 96 well plates coated with Streptavidin (Pierce) (reactions were stopped with EDTA), or addition of Avidin coated Scintillant impregnated beads (Scintillation Proximity Assays from Amersham, reactions were stopped with EDTA).

The target in the next assay is T1, UL97 (Human cytomegalovirus, UniProt P16788).
T1 construct: GST; made in house; host or cells: baculovirus vector in Sf9 cells
The assay is described as follows: UL97 protein kinase assay, 32P transfer from ATP to histone H2B. It counts as biochemical. As to the method:
UL97 was produced as a GST fusion protein from a baculovirus vector expressed in sf9 cells as described by He (He, et al., Journal of Virology 1997, 71, 405-11). UL97 was assayed as a protein kinase using ^32P transfer from ATP to histone H2B with detection of radiolabeled histone bound to phosphocellulose. Assay mixes for testing inhibitors of UL97 activity contained 2 mM [γ^32P]-ATP, 15 mM histone H2B, 50 mM sodiumCHES, pH 9.5, 1 M NaCl, 2 mM dithiothreitol and 10 mM MgCl2. Inhibitors were dissolved in diluted DMSO to give a final DMSO concentration in the reaction of 1% DMSO. After incubation at 20° C., the reactions were terminated by addition of 10 volumes of 75 mM phosphoric acid, 30 mM ATP, 1 mM EDTA, then were spotted onto phosphocellulose filters and washed four times with 75 mM phosphoric acid. Radioactivity was determined by liquid scintillation counting.

The subject of assay [1] is RKO colon adenocarcinoma cells. The assay is described as follows: FACS assay (cell death by flow cytometry), RKO. The class given is cell-based, human. Conditions: Homo sapiens, 72 h, read-out: FACS RKO IC50. As to the method: These assays allow determination of both cell death and changes in cell cycle profile in cells following treatment of the compound. The assay is performend as follows:
1. Cells are incubated in DMEM to which 10% FCS has been added in a humidified incubator at 37° C. and 5% by volume of CO2 in air. The cells are innoculated in 6-well plates at a density of 0.5-5×10^5 cells per well.
2. The test compound is added in serial dilutions 24-36 h after plating in 0.5% DMSO. The plates are then incubated a further 72 h in the presence of the compound. During this time, cells in control cultures undergo at least three cell divisions.
3. After incubation, the media is collected and cells are harvested by trypsinization. The cells and media are pooled and pelleted by centrifugation.
4. The cell pellet is fixed in a final volume of 3 mL of 50% ice cold MeOH and incubated for a minimum of 30 min at −20° C.
5. The cells are pelleted by centrifugation and resuspended in 0.5 mL PBS containing 1%FCS, […] Propidium Iodide (PI) and 5 mg/mL RNase A and incubated 30 min at 37° C. in the dark.
6. The samples are analysed by flow cytometry using the relative incorporation of PI as a measure of DNA content of each cell. The % Dead cells is recorded as % of events with less than 2N DNA.
HDF are normal diploid fibroblast cells. RKO are colon adenocarcinoma cells and MES/SA are […].

The target in the next assay is cSrc (Homo sapiens, UniProt P12931). The assay can be described thus: Src peptide phosphorylation assay (Elisa or isotope based). It counts as biochemical. Here is the method: The peptide substrates used in Src and Lck assays were biotin-aminohexyl-EEIYGEF-NH2 (Src) and biotin-aminohexyl-[…]-NH2 (Lck). The src and Ick proteins were purified to homogeneity from a baculovirus expression system and preactivated before adding to assay mixtures. The maximum activation was achieved by incubating concentrated enzyme (10-30 mM) on ice for 40 min in the presence of 1 mM ATP and 10 mM MgCl2 in 100 mM HEPES, pH 7.5. The activated enzyme was diluted to 2 nM into a 50-mL reaction mixture containing 100 mM HEPES, pH 7.5. 5 mM ATP, 10 mM MgCl2, 2 mM peptide, 0.05 mg/mL BSA, and an inhibitor at varying concentrations and with or without 8 mCi/mL [γ-^33P]ATP dependent upon the method of analysis for the extent of reaction. The controls were reactions in the presence (negative controls) or absence (positive controls) of 50 mM EDTA. Reactions were allowed to proceed for 30 min at room temperature and quenched with addition of EDTA to 50 mM in 220 mL. The extent of reactions was analyzed in one of the two ways: an Elisa-based and a radioactive isotope-based. The quenched samples (200 mL) were transferred to a neutravidin coated plate (Perice) and incubated at room temperature for 40 min to allow biotinylated peptide to bind to neutravidin. The unbound peptide and the rest of the solution was washed away using a plate washer. In the Elisa format, a 200 mL HRP-PY20 anti phosphotyrosine antibody conjugate solution was added. After incubation for about 30 min, the plated was washed to remove unbound antibody-HRP conjugate. An Elisa substrate, K-blue (Neogen), was added and the Elisa reaction quenched with Red-stop (Neogen) after 15 min. The plate was read at A625 in a plate reader. In the isotope-based format, the reactions had been performed in the presence of [γ-^33P]ATP. 200 mL Scintiverce DB was added to each well of the plate with bound biotin-peptide. The plate was sealed and counted in a micro-b-counter (Wallac). IC50 values were obtained by fitting raw data to A625 (cpm)=Vmax*(1−([l]/(IC50+[l])))+b, where b is background.

Like-named read-outs stand apart in the source and are kept apart here.

T1 sequence (P16788 whole entry): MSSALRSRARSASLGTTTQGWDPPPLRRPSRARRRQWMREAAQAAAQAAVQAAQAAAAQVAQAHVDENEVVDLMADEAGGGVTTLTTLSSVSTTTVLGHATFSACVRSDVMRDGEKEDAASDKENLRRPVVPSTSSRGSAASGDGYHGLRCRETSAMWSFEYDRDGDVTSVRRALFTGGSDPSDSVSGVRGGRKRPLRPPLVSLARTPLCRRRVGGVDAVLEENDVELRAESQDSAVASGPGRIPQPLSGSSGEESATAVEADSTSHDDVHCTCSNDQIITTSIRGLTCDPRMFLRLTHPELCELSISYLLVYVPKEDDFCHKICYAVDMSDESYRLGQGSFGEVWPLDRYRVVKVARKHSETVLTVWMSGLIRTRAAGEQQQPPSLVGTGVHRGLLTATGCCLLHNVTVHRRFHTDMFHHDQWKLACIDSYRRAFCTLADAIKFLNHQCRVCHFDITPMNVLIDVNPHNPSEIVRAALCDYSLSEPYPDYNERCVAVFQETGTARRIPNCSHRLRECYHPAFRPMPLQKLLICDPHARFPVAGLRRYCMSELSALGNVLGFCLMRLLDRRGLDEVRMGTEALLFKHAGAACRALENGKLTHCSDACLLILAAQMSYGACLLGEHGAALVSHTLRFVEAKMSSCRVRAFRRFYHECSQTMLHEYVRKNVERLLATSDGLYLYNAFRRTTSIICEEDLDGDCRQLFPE
Chain of cSrc (P12931 whole entry, species assumed): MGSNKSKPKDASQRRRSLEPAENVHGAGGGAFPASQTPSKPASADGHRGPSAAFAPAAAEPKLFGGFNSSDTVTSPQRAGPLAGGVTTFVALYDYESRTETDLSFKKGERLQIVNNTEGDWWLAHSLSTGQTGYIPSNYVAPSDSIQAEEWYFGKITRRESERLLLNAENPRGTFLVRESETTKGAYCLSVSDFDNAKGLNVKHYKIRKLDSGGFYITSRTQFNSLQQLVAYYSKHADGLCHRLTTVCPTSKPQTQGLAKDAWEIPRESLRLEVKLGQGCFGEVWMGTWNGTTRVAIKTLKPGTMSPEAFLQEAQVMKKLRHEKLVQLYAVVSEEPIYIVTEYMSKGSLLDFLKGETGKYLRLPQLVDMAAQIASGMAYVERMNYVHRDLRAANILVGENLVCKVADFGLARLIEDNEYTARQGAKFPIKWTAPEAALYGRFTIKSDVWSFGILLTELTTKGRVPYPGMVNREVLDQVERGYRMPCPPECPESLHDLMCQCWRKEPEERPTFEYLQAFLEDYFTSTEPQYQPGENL
Chain of CDK1 (P06493 whole entry, species assumed): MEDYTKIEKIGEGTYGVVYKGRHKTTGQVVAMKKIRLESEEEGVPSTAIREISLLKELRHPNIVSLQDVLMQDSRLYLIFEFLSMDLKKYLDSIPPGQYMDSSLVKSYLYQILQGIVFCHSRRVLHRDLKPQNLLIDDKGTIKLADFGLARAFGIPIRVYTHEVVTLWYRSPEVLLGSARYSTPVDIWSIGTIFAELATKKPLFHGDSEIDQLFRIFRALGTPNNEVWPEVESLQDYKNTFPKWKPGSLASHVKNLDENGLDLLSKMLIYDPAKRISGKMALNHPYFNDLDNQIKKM
Chain of CDK1 (P14635 whole entry partner, species assumed): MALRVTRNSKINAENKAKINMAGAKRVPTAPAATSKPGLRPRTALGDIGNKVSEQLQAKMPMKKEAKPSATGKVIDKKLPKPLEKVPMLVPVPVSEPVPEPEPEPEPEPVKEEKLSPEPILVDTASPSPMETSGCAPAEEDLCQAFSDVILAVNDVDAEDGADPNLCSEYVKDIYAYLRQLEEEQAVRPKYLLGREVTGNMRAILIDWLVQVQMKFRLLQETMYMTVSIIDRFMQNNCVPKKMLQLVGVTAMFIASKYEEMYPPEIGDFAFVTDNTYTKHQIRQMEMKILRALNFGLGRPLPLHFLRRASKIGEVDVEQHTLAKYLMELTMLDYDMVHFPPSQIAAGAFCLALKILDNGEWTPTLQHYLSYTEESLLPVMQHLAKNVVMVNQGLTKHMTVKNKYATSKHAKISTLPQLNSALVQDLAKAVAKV

For `CNS(=O)(=O)Cc1ccc(NN=C2C(=O)Nc3ccc4ncccc4c32)cc1` [Example 68, N-Methyl-C-{4-[N′-(2-oxo-2,3-dihydro-pyrrolo[3,2-f]quinolin-1-ylidene)-hydrazino]-phenyl}-methanesulfonamide], the IC50 at CDK1 (read-out: CDK1 IC50) lay in the range of 0.051 to 0.1 µM; against UL97 it was 0.011 to 0.05 µM; in assay [1], 1.1 to 5 µM.

For the compound `O=C1Nc2ccc3ncsc3c2C1=CNc1ccc(S(=O)(=O)Nc2ccccn2)cc1` [Example 72, 4-[(7-Oxo-6,7-dihydro-1-thia-3,6-diaza-as-indacen-8-ylidenemethyl)-amino]-N-pyridin-2-yl-benzenesulfonamide], the IC50 against CDK1 is 0.051 to 0.1 µM; on cSrc, more than 0.1 µM; at UL97, 0.011 to 0.05 µM; in assay [1], 1.1 to 5 µM.

In the case of `CS(=O)(=O)Cc1ccc(NC=C2C(=O)Nc3ccc4ncsc4c32)cc1` [Example 76, 8-(4-Methylsulfonylmethyl-phenylamino-methylene)-6,8-dihydro-1-thia-3,6-diaza-as-indacen-7-one], the results for the IC50 (at CDK1 (read-out: CDK1 IC50); at cSrc; in assay [1] (50% cell death)) were more than 0.1 µM, more than 0.1 µM and 1.1 to 5 µM, respectively.

Regarding `CC(C)(CO)CNS(=O)(=O)c1ccc(NC=C2C(=O)Nc3ccc4ncsc4c32)cc1` [Example 77, N-(3-Hydroxy-2,2-dimethyl-propyl)-4-[(7-oxo-6,7-dihydro-1-thia-3,6-diaza-as-indacen-8-ylidenemethyl)-amino]-benzenesulfonamide], the half-maximal inhibitory concentration (IC50) at CDK1 (read-out: CDK1 IC50) is 0.001 to 0.01 µM; at UL97, 0.001 to 0.01 µM; in assay [1] (50% cell death), 1.1 to 5 µM.

As for `CNS(=O)(=O)Cc1ccc(NN=C2C(=O)Nc3cc(C)c(O)c(C)c32)cc1` [Example 99], the IC50 at CDK1 (read-out: CDK1 IC50) was more than 0.1 µM; against cSrc it was more than 0.1 µM; on UL97, 0.001 to 0.01 µM; in assay [1] (50% cell death) it was 0.1 to 0.5 µM.

As usually defined, the IC50 is the point on the concentration scale where inhibition reaches its midpoint.

For the origin of these results see US6541503B2, “Substituted oxindole derivatives as protein tyrosine kinase and as protein serine/threonine kinase inhibitors” (SmithKline Beecham Corporation, priority 1997, dated 2003).
